Entries after “also recorded” stand apart in the source; their conditions may differ.
Tests used:
BAT5 = target: T1, BAT5 (Mus musculus, UniProt Q9Z1Q2); assay: Competitive ABPP, mouse brain membrane proteome: BAT5 band; conditions: tested concentration range 10^−8–10^−5 M
T1 sequence (Q9Z1Q2 1-558): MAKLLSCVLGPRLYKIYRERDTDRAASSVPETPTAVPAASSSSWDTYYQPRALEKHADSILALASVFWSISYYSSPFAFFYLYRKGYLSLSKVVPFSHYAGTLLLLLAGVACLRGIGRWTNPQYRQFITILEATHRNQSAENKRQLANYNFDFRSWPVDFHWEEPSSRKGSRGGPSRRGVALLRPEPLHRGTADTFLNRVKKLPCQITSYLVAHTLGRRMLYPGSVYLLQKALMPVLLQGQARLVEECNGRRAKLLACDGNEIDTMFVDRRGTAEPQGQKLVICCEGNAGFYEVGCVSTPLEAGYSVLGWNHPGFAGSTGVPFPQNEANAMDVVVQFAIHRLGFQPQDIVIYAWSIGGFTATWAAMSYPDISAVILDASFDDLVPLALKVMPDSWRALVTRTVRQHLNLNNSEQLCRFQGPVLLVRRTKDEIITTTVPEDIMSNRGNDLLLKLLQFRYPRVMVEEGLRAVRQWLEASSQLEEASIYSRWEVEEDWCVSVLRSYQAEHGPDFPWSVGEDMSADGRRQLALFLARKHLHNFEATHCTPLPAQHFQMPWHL

ABHD12 = target: T2, ABHD12 (Mus musculus, UniProt Q99LR1); assay: Competitive ABPP, mouse brain membrane proteome: ABHD12 band; conditions: tested concentration range 10^−8–10^−5 M
T2 sequence (Q99LR1 1-398): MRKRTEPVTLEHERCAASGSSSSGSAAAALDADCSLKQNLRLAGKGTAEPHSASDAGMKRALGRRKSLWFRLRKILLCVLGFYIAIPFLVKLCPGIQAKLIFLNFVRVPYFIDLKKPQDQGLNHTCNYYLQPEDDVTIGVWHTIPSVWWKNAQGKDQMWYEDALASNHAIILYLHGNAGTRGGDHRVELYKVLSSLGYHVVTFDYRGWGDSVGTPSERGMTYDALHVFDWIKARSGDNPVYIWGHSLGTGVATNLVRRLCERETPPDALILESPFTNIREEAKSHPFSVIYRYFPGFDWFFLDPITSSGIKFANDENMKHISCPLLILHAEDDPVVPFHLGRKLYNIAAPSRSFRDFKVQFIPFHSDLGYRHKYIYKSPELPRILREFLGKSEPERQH

hMAGL = target: T3, hMAGL (Homo sapiens, UniProt Q99685); assay: Hydrolase activity assay, hMAGL-HEK lysates; type: biochemical; conditions: hMAGL-HEK lysates
T3 construct: expressed in transfected cells; host or cells: HEK
T3 sequence (Q99685 1-303): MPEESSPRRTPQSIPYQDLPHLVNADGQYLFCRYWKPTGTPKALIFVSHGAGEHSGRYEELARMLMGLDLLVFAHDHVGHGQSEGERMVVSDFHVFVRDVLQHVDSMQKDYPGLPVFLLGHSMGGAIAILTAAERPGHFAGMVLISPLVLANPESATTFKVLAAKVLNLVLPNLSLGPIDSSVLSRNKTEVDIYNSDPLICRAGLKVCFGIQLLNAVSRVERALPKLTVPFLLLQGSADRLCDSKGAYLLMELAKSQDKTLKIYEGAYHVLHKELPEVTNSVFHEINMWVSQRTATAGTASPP

ABHD6 = target: T4, ABHD6 (Mus musculus, UniProt Q8R2Y0); assay: Competitive ABPP, mouse brain membrane proteome: ABHD6 band; conditions: at the highest concentration (10^−5 M)
T4 sequence (Q8R2Y0 1-336): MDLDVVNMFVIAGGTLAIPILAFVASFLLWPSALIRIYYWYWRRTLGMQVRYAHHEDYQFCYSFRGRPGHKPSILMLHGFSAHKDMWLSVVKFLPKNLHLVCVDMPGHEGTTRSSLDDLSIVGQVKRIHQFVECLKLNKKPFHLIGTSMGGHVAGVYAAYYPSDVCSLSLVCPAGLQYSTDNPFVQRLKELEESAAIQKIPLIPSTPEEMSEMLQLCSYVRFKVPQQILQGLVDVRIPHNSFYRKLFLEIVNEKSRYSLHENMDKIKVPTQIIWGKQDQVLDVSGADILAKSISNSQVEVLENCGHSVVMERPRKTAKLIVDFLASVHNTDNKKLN

hABHD6 = target: T5, hABHD6 (Homo sapiens, UniProt Q9BV23); assay: Hydrolase activity assay, hABHD6-HEK lysates; type: biochemical; conditions: hABHD6-HEK lysates; read-out: IC50
T5 construct: expressed in transfected cells; host or cells: HEK293
T5 sequence (Q9BV23 1-337): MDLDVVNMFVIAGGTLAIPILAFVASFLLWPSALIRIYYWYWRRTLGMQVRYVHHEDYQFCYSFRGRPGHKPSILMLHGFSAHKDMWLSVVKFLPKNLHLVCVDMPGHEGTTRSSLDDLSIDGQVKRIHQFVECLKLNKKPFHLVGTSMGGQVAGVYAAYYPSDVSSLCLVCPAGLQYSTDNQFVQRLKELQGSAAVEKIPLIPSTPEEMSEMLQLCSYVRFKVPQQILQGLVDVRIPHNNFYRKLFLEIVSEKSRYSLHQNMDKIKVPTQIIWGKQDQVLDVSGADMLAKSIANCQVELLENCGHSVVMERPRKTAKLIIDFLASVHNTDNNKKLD

hFAAH = target: T6, hFAAH (Homo sapiens, UniProt O00519); assay: FAAH activity assay, hFAAH-COS7 membranes (3H-anandamide); type: biochemical
T6 construct: expressed in transfected cells; host or cells: COS-7
T6 sequence (O00519 1-579): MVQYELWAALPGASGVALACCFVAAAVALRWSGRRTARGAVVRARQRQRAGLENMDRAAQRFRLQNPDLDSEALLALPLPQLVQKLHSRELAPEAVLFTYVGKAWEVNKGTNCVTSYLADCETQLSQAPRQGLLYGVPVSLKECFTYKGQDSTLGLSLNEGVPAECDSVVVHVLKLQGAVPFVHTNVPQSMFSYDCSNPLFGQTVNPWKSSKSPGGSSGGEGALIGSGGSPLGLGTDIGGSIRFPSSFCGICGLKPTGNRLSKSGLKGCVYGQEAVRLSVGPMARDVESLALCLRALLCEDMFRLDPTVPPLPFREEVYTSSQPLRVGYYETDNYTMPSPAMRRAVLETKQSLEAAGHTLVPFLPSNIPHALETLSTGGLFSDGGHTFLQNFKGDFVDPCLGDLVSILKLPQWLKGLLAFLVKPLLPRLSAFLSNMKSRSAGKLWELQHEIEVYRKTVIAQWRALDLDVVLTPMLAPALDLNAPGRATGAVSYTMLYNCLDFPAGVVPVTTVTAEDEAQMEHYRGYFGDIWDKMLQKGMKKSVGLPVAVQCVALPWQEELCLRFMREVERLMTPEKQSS

LYPLA1/2 = assay: Competitive ABPP, mouse brain membrane proteome: LYPLA1/2 band; conditions: tested concentration range 10^−8–10^−5 M

CCCCCCCCCC[C@@H]1C(=O)O[C@H]1CCc1ccc(OC)c(OC)c1 [Palmostatin B, palmostatin B]
inhibition of probe binding to BAT5 (BAT5): dose-dependently inhibited probe binding; also recorded: dose-dependently inhibits probe labeling | inhibition of probe binding to ABHD12 (ABHD12): dose-dependently inhibited probe binding; also recorded: dose-dependently inhibits probe labeling | IC50 (hMAGL): 93.3 nM | inhibition of probe binding to ABHD6 (ABHD6): inhibited probe binding; also recorded: also inhibited | IC50 (hABHD6): 52.5 nM | sensitivity of hFAAH (in words) (hFAAH): resistant | remaining activity at 1 µM (hFAAH; at 10^−6 M): 92.4% | inhibition of probe binding to LYPLA1/2 (LYPLA1/2): dose-dependently inhibited probe binding; also recorded: dose-dependently inhibits probe labeling

From PMC4188605, “Biochemical and Pharmacological Characterization of the Human Lymphocyte Antigen B-Associated Transcript 5 (BAT5/ABHD16A)” (PLoS ONE, 2014)
